Assay results published in PubChem BioAssay AID1259411 (Chemical Carcinogenesis Research Information System (CCRIS), 2018).
Activity calls are given as the source filed them. No rule for the calls is given here.

Tested on: rodent carcinogenicity bioassays, tumor incidence
Assay: CCRIS carcinogenicity studies
Procedure, shortened: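 Archive of carcinogenicity, mutagenicity, tumor promotion and tumor inhibition results drawn from journals, NCI reports and other sources, expert-reviewed; covers 1985-2011 and is no longer updated.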

ClCCN(CCCl)c1ccc2ccccc2c1
carcinogen call (Species: HUMAN, Route: ORAL, Tumor Site: Type of Lesion: URINARY BLADDER): active; positive | carcinogen call (Species: MOUSE, Strain/Sex: STRAIN-A, Route: INTRAPERITONEAL, Dose: 75, 300, 1200, 4800 MG/KG IN 12 DOSES OVER 4 WK, Dose: 75, 300, 1200, 4800 MG/KG IN 12 DOSES OVER 4 WK, Tumor Site: Type of Lesion: LUNG: ADENOMA): active; positive | carcinogen call (Species: RAT, Route: SUBCUTANEOUS, Dose: 40 MG IN REPEATED DOSES, Tumor Site: Type of Lesion: INJECTION SITE): active; positive

F
carcinogen call (Species: MOUSE, Strain/Sex: B6C3F1/FEMALE, Route: ORAL, Dose: 0, 25, 100, 175 PPM IN DRINKING WATER FOR 103 WK (STUDY DURATION: 103 WK), Dose: 0, 25, 100, 175 PPM IN DRINKING WATER FOR 103 WK (STUDY DURATION: 103 WK)): inactive; negative | carcinogen call (Species: MOUSE, Strain/Sex: B6C3F1/MALE, Route: ORAL, Dose: 0, 25, 100, 175 PPM IN DRINKING WATER FOR 103 WK (STUDY DURATION: 103 WK), Dose: 0, 25, 100, 175 PPM IN DRINKING WATER FOR 103 WK (STUDY DURATION: 103 WK)): inactive; negative | carcinogen call (Species: MOUSE, Strain/Sex: F344/MALE, Route: ORAL, Dose: 0, 25, 100, 175 PPM IN DRINKING WATER FOR 103 WK (STUDY DURATION: 103 WK), Dose: 0, 25, 100, 175 PPM IN DRINKING WATER FOR 103 WK (STUDY DURATION: 103 WK), Tumor Site: Type of Lesion: BONE: OSTEOSARCOMA): equivocal | carcinogen call (Species: RAT, Strain/Sex: F344/FEMALE, Route: ORAL, Dose: 0, 25, 100, 175 PPM IN DRINKING WATER FOR 103 WK (STUDY DURATION: 103 WK), Dose: 0, 25, 100, 175 PPM IN DRINKING WATER FOR 103 WK (STUDY DURATION: 103 WK)): inactive; negative | carcinogen call (Species: RAT, Strain/Sex: SPRAGUE-DAWLEY/FEMALE, Route: ORAL, Dose: 0, 4, 10, 25 MG/KG/D ADDED TO LOW-FLUORIDE DIET FOR DURATION OF STUDY (STUDY DURATION: 99 WK), Dose: 0, 4, 10, 25 MG/KG/D ADDED TO LOW-FLUORIDE DIET FOR DURATION OF STUDY (STUDY DURATION: 99 WK)): inactive; negative | carcinogen call (Species: RAT, Strain/Sex: SPRAGUE-DAWLEY/MALE, Route: ORAL, Dose: 0, 4, 10, 25 MG/KG/D ADDED TO LOW-FLUORIDE DIET FOR DURATION OF STUDY (STUDY DURATION: 95 WK), Dose: 0, 4, 10, 25 MG/KG/D ADDED TO LOW-FLUORIDE DIET FOR DURATION OF STUDY (STUDY DURATION: 95 WK)): inactive; negative

ClC=C(Cl)Cl
carcinogen call (Species: MOUSE, Strain/Sex: B6C3F1/FEMALE, Route: GAVAGE, Dose: 0, 869, 1739 MG/KG/D, TWA, Dose: 0, 869, 1739 MG/KG/D, TWA, Tumor Site: Type of Lesion: LIVER: HEPATOCELLULAR CARCINOMA): active; positive | carcinogen call (Species: MOUSE, Strain/Sex: B6C3F1/FEMALE, Route: GAVAGE, Dose: 0, 1000 MG/KG IN CORN OIL 5 D/WK FOR 103 WK (STUDY DURATION: 107 WK), Tumor Site: Type of Lesion: LIVER: ADENOMA, CARCINOMA): active; positive | carcinogen call (Species: MOUSE, Strain/Sex: B6C3F1/FEMALE, Route: INHALATION, Dose: 0, 100, 300, 600 PPM 7 HR/D 5 D/WK FOR 78 WK (STUDY DURATION: LIFETIME), Dose: 0, 100, 300, 600 PPM 7 HR/D 5 D/WK FOR 78 WK (STUDY DURATION: LIFETIME), Tumor Site: Type of Lesion: LUNG: TUMOR): active; positive | carcinogen call (Species: MOUSE, Strain/Sex: B6C3F1/MALE, Route: GAVAGE, Dose: 0, 1000 MG/KG IN CORN OIL 5 D/WK FOR 103 WK (STUDY DURATION: 107 WK), Tumor Site: Type of Lesion: LIVER: ADENOMA, CARCINOMA): active; positive | carcinogen call (Species: MOUSE, Strain/Sex: B6C3F1/MALE, Route: GAVAGE, Dose: 0, 1169, 2339 MG/KG/D, TWA, Dose: 0, 1169, 2339 MG/KG/D, TWA, Tumor Site: Type of Lesion: LIVER: HEPATOCELLULAR CARCINOMA): active; positive | carcinogen call (Species: MOUSE, Strain/Sex: B6C3F1/MALE, Route: INHALATION, Dose: 0, 100, 300, 600 PPM 7 HR/D 5 D/WK FOR 78 WK (STUDY DURATION: LIFETIME), Dose: 0, 100, 300, 600 PPM 7 HR/D 5 D/WK FOR 78 WK (STUDY DURATION: LIFETIME)): inactive; negative | carcinogen call (Species: MOUSE, Strain/Sex: ICR/MALE, FEMALE, Route: GAVAGE, Dose: 0, 10 MG/KG IN CORN OIL 5 D/WK FOR 18 MO (DOSES REDUCED BY FACTOR OF 2 FROM 40TH WEEK)(STUDY DURATION: 24 MO)): inactive; negative | carcinogen call (Species: MOUSE, Strain/Sex: SWISS/FEMALE, Route: INHALATION, Dose: 0, 100, 300, 600 PPM 7 HR/D 5 D/WK FOR 78 WK (STUDY DURATION: LIFETIME), Dose: 0, 100, 300, 600 PPM 7 HR/D 5 D/WK FOR 78 WK (STUDY DURATION: LIFETIME)): inactive; negative | carcinogen call (Species: MOUSE, Strain/Sex: SWISS/MALE, Route: INHALATION, Dose: 0, 100, 300, 600 PPM 7 HR/D 5 D/WK FOR 78 WK (STUDY DURATION: LIFETIME), Dose: 0, 100, 300, 600 PPM 7 HR/D 5 D/WK FOR 78 WK (STUDY DURATION: LIFETIME), Tumor Site: Type of Lesion: LUNG: TUMOR, LIVER: HEPATOMA): active; positive | carcinogen call (Species: RAT, Strain/Sex: F344/FEMALE, Route: GAVAGE, Dose: 0, 500, 1000 MG/KG IN CORN OIL 5 D/WK FOR 103 WK (STUDY DURATION: 107 WK), Dose: 0, 500, 1000 MG/KG IN CORN OIL 5 D/WK FOR 103 WK (STUDY DURATION: 107 WK)): inactive; negative | carcinogen call (Species: RAT, Strain/Sex: SPRAGUE-DAWLEY/FEMALE, Route: GAVAGE, Dose: 0, 50, 250 MG/KG BW IN OLIVE OIL 1/D 4-6 D/WK FOR 52 WK (STUDY DURATION: LIFETIME), Dose: 0, 50, 250 MG/KG BW IN OLIVE OIL 1/D 4-6 D/WK FOR 52 WK (STUDY DURATION: LIFETIME), Tumor Site: Type of Lesion: [BRAIN WAS ONLY SITE EVALUATED]): inactive; negative | carcinogen call (Species: RAT, Strain/Sex: SPRAGUE-DAWLEY/FEMALE, Route: INHALATION, Dose: 0, 100, 300, 600 PPM 7 HR/D 5 D/WK FOR 104 WK (STUDY DURATION: LIFETIME), Dose: 0, 100, 300, 600 PPM 7 HR/D 5 D/WK FOR 104 WK (STUDY DURATION: LIFETIME)): inactive; negative | carcinogen call (Species: RAT, Strain/Sex: SPRAGUE-DAWLEY/MALE, Route: GAVAGE, Dose: 0, 50, 250 MG/KG BW IN OLIVE OIL 1/D 4-6 D/WK FOR 52 WK (STUDY DURATION: LIFETIME), Dose: 0, 50, 250 MG/KG BW IN OLIVE OIL 1/D 4-6 D/WK FOR 52 WK (STUDY DURATION: LIFETIME), Tumor Site: Type of Lesion: [BRAIN WAS ONLY SITE EVALUATED]): inactive; negative | carcinogen call (Species: RAT, Strain/Sex: SPRAGUE-DAWLEY/MALE, Route: INHALATION, Dose: 0, 100, 300, 600 PPM 7 HR/D 5 D/WK FOR 104 WK (STUDY DURATION: LIFETIME), Dose: 0, 100, 300, 600 PPM 7 HR/D 5 D/WK FOR 104 WK (STUDY DURATION: LIFETIME), Tumor Site: Type of Lesion: TESTIS: LEYDIG CELL TUMOR): active; positive

OC1c2ccc3cc4ccccc4nc3c2C2OC2C1O (stereo unspecified)
carcinogen call (Species: MOUSE, Strain/Sex: SWISS/FEMALE, Route: INTRAPERITONEAL, Dose: 0, 0.5 UMOL GIVEN AS 70 NMOL IN 5 µL DMSO WITHIN 24 HR OF BIRTH, 140 NMOL IN 10 µL DMSO ON D 8 OF LIFE, AND 280 NMOL IN, Tumor Site: Type of Lesion: LUNG: ADENOMA): active; positive | carcinogen call (Species: MOUSE, Strain/Sex: SWISS/FEMALE, Route: INTRAPERITONEAL, Dose: 0, 1.05 UMOL GIVEN AS 150 NMOL IN 5 µL DMSO WITHIN 24 HR OF BIRTH, 300 NMOL IN 10 µL DMSO ON D 8 OF LIFE, AND 600 NMOL I, Tumor Site: Type of Lesion: LUNG: ADENOMA): active; positive | carcinogen call (Species: MOUSE, Strain/Sex: SWISS/MALE, Route: INTRAPERITONEAL, Dose: 0, 0.5 UMOL GIVEN AS 70 NMOL IN 5 µL DMSO WITHIN 24 HR OF BIRTH, 140 NMOL IN 10 µL DMSO ON D 8 OF LIFE, AND 280 NMOL IN, Tumor Site: Type of Lesion: LUNG: ADENOMA, LIVER: NEOPLASTIC NODULE): active; positive | carcinogen call (Species: MOUSE, Strain/Sex: SWISS/MALE, Route: INTRAPERITONEAL, Dose: 0, 1.05 UMOL GIVEN AS 150 NMOL IN 5 µL DMSO WITHIN 24 HR OF BIRTH, 300 NMOL IN 10 µL DMSO ON D 8 OF LIFE, AND 600 NMOL I, Tumor Site: Type of Lesion: LUNG: ADENOMA, LIVER: NEOPLASTIC NODULE): active; positive

CC1CC(=O)O1 (stereo unspecified)
carcinogen call (Species: MOUSE, Route: DERMAL, Tumor Site: Type of Lesion: INTEGUMENTARY SYSTEM (SKIN)): active; positive | carcinogen call (Species: MOUSE, Route: SUBCUTANEOUS, Tumor Site: Type of Lesion: INJECTION SITE): active; positive | carcinogen call (Species: RAT, Route: GAVAGE, Tumor Site: Type of Lesion: FORESTOMACH): active; positive | carcinogen call (Species: RAT, Route: SUBCUTANEOUS, Tumor Site: Type of Lesion: INJECTION SITE): active; positive
